Measured values as given in patent US20020137929A1, “1 - (3-heterocyclylphenyl) isothiourea, -isourea, -guanidine and -amidine herbicidal agents” (Intellectual Property Department, BASF Aktiengesellschaft, priority 1998, published 2002).

What was measured:
[1] = test system: CASOB (Sicklepod); assay: Postemergence herbicidal evaluation; assay type: in vivo, Cassia obtusifolia; conditions: for herbicidal rating CASOB: postemergence
In short: (§1)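 Seedlings grown about two weeks were sprayed at 40 psi with compound dispersed in 50/50 acetone/water plus 0.5% TWEEN 20, at about 0.0156 to 0.500 kg/ha. Plants were kept in the greenhouse and scored 4–5 weeks later on a 0–9 visual scale against untreated controls.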

[2] = test system: CHEAL (Lambsquarters, Common); assay: Postemergence herbicidal evaluation; assay type: in vivo, Chenopodium album; conditions: for herbicidal rating CHEAL: postemergence
In short: as §1

[3] = test system: TRZAWR (Wheat, Winter, cv Riband); assay: Postemergence herbicidal evaluation; assay type: in vivo, Triticum aestivum; conditions: for herbicidal rating TRZAWR: postemergence
In short: as §1

[4] = test system: CHEAL (Lambsquarters, Common); assay: Preemergence herbicidal evaluation; assay type: in vivo, Chenopodium album; conditions: rated 4-5 weeks after treatment
In short: (§2)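 In this greenhouse assay, monocot and dicot seeds are planted in soil and treated prior to emergence with an aqueous acetone spray (about 0.0156-0.500 kg/ha). Plants are assessed visually against control on a 0-9 scale after 4-5 weeks.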

[5] = test system: ORYSAT (Rice, Tebonnet); assay: Preemergence herbicidal evaluation; assay type: in vivo, Oryza sativa, (L.) Tebonnet; conditions: rated 4-5 weeks after treatment
In short: as §2

[6] = test system: MOOVA (Monochoria); assay: Postemergence weed control under flooded paddy conditions; assay type: in vivo, Monochoria vaginalis; conditions: postemergence weeds
Excerpt: Results of herbicide evaluation are expressed on a rating scale (0-9). The scale is based upon a visual observation of plant stand, vigor, malformation, size, chlorosis and overall plant appearance as compared with a control.
Plastic containers containing weeds which are 3 to 5 cm tall and rice seedlings at the 1.5 to 2.5 leaf stage are flooded with water. The water is maintained at 1.5 to 3 cm above the soil surface for the duration of the experiment. Test compounds are applied as aqueous/ acetone mixtures 50/50 v/v directly into the flood water to provide the equivalent of about 0.0313 to 0.500 kg/ha of active ingredient. The treated containers are placed on greenhouse benches and cared for in accordance with conventional greenhouse procedures. Three to four weeks after treatment, the test is terminated and each container is examined and herbicidal effect rated according to the rating system provided in Example 37. The compounds evaluated are reported by compound number given in Example 37.

[7] = rate 0.0313 kg/ha, 3-4 weeks after treatment
[8] = rate 0.0625 kg/ha, 3-4 weeks after treatment
[9] = rate 0.1250 kg/ha, 3-4 weeks after treatment
[10] = rate 0.2500 kg/ha, 3-4 weeks after treatment
[11] = rate 0.0156 kg/ha, rating scale 0-9
[12] = rate 0.0313 kg/ha, rating scale 0-9
[13] = rate 0.0625 kg/ha, rating scale 0-9
[14] = rate 0.1250 kg/ha, rating scale 0-9
[15] = rate 0.2500 kg/ha, rating scale 0-9

Row | SMILES | Preemergence herbicidal rating CHEAL ([4]; rate 0.0313 kg/ha) | Preemergence herbicidal rating CHEAL ([4]; rate 0.0625 kg/ha) | Preemergence herbicidal rating CHEAL ([4]; rate 0.1250 kg/ha) | Preemergence herbicidal rating CHEAL ([4]; rate 0.2500 kg/ha) | Preemergence herbicidal rating ORYSAT ([5]; rate 0.0313 kg/ha) | Preemergence herbicidal rating ORYSAT ([5]; rate 0.0625 kg/ha) | Preemergence herbicidal rating ORYSAT ([5]; rate 0.1250 kg/ha) | Preemergence herbicidal rating ORYSAT ([5]; rate 0.2500 kg/ha) | Herbicidal rating MOOVA [6, 7] | Herbicidal rating MOOVA [6, 8] | Herbicidal rating MOOVA [6, 9] | Herbicidal rating MOOVA [6, 10] | Postemergence herbicidal rating CASOB ([1]; Rate 0.0158 kg/ha) | Postemergence herbicidal rating CASOB ([1]; Rate 0.0315 kg/ha) | Postemergence herbicidal rating CASOB ([1]; Rate 0.0630 kg/ha) | Postemergence herbicidal rating CHEAL ([2]; Rate 0.0158 kg/ha) | Postemergence herbicidal rating CHEAL ([2]; Rate 0.0315 kg/ha) | Postemergence herbicidal rating CHEAL ([2]; Rate 0.0630 kg/ha) | Postemergence herbicidal rating TRZAWR ([3]; Rate 0.0158 kg/ha) | Postemergence herbicidal rating TRZAWR ([3]; Rate 0.0315 kg/ha) | other results
1 | Cn1c(C(F)(F)F)cc(=O)n(-c2cc(N=C3SCC(=O)N3CC(=O)NS(C)(=O)=O)c(Cl)cc2F)c1=O [Compound 38, 2-{{2-Chloro-5-[3,6-dihydro-3-methyl-2,6-dioxo-4-(trifluoromethyl)-1(2H)-pyrimidinyl]-4-fluoro-phenyl}imino}-N-(methylsulfonyl)-4-oxo-3-thiazolidineacetamide] | 9.0 | 9.0 | 9.0 | 9.0 | 0.0 | 0.0 | 0.0 | 2.0 | 9.0 | 9.0 | 9.0 | 9.0 | – | – | – | – | – | – | – | – | Postemergence herbicidal rating CASOB ([1]; Rate 0.0156 kg/ha): 0.0; Postemergence herbicidal rating CASOB ([1]; Rate 0.0313 kg/ha): 1.0; Postemergence herbicidal rating CASOB ([1]; Rate 0.0625 kg/ha): 2.0; Postemergence herbicidal rating CASOB ([1]; Rate 0.1250 kg/ha): 3.0; Postemergence herbicidal rating CASOB ([1]; Rate 0.2500 kg/ha): 3.0; Postemergence herbicidal rating CHEAL ([2]; Rate 0.0156 kg/ha): 1.0; Postemergence herbicidal rating CHEAL ([2]; Rate 0.0313 kg/ha): 3.0; Postemergence herbicidal rating CHEAL ([2]; Rate 0.0625 kg/ha): 4.0; Postemergence herbicidal rating CHEAL ([2]; Rate 0.1250 kg/ha): 6.0; Postemergence herbicidal rating CHEAL ([2]; Rate 0.2500 kg/ha): 9.0; Postemergence herbicidal rating TRZAWR ([3]; Rate 0.0156 kg/ha): 5.0; Postemergence herbicidal rating TRZAWR ([3]; Rate 0.0313 kg/ha): 5.5; Postemergence herbicidal rating TRZAWR ([3]; Rate 0.0625 kg/ha): 6.5; Postemergence herbicidal rating TRZAWR ([3]; Rate 0.1250 kg/ha): 8.0; Postemergence herbicidal rating TRZAWR ([3]; Rate 0.2500 kg/ha): 8.0
2 | CCOC(=O)CN1C(=O)C(CC(=O)OCc2ccccc2)OC1=Nc1cc(-n2c(=O)cc(C(F)(F)F)n(C)c2=O)c(F)cc1Cl (centres unmarked) [Compound 40, 2-{{2-Chloro-5-[3,6-dihydro-3-methyl-2,6-dioxo-4-(trifluoromethyl)-1(2H)-pyrimidinyl]-4-fluorophenyl}imino}-4-oxo-3,5-oxazolidinediacetic acid, 5-benzyl ethyl ester] | 9.0 | 9.0 | 9.0 | 9.0 | 0.0 | 0.0 | 0.0 | 1.0 | 9.0 | 9.0 | 9.0 | 9.0 | 0.0 | 2.0 | 5.0 | 2.0 | 7.0 | 9.0 | 4.0 | 4.0 | Postemergence herbicidal rating TRZAWR ([3]; Rate 0.0630 kg/ha): 4.5
3 | CCOC(=O)CN1C(=O)C(CC(=O)OC(C)C)SC1=Nc1cc(-n2c(=O)cc(C(F)(F)F)n(C)c2=O)c(F)cc1Cl (centres unmarked) [Compound 60, 2-{{2-Chloro-5-[3,6-dihydro-3-methyl-2,6-dioxo-4-(trifluoromethyl)-1(2H)-pyrimidinyl]-4-fluoro-phenyl}imino}-4-oxo-3,5-thiazolidinediacetic acid, 3-ethyl isopropyl ester] | 8.0 | 9.0 | 9.0 | 9.0 | 0.0 | 0.0 | 0.5 | 2.0 | – | – | – | – | 0.0 | 0.0 | 3.0 | 4.0 | 4.0 | 9.0 | 4.5 | 4.5 | Postemergence herbicidal rating TRZAWR ([3]; Rate 0.0630 kg/ha): 4.5; Preemergence herbicidal rating CHEAL ([4]; rate 0.0156 kg/ha): 9.0; Preemergence herbicidal rating CHEAL ([4]; rate 0.5000 kg/ha): 9.0; Preemergence herbicidal rating ORYSAT ([5]; rate 0.0156 kg/ha): 0.0; Preemergence herbicidal rating ORYSAT ([5]; rate 0.5000 kg/ha): 7.0; Herbicidal rating MOOVA ([6]; Rate 0.0313 kg/ha, rated 3 to 4 weeks after treatment): 9.0; Herbicidal rating MOOVA ([6]; Rate 0.0625 kg/ha, rated 3 to 4 weeks after treatment): 9.0; Herbicidal rating MOOVA ([6]; Rate 0.1250 kg/ha, rated 3 to 4 weeks after treatment): 9.0; Herbicidal rating MOOVA ([6]; Rate 0.2500 kg/ha, rated 3 to 4 weeks after treatment): 9.0
4 | Cc1cccc(CN2C(=O)CSC2=Nc2cc(-n3c(=O)cc(C(F)(F)F)n(C)c3=O)c(F)cc2Cl)c1 [Compound 130, 3-{4-Chloro-2-fluoro-5-{[3-(m-methylbenzyl)-4-oxo-2-thiazolidinylidene]amino}phenyl}-1-methyl-6-(trifluoromethyl)-2,4 (1H, 3H)-pyrimidinedione] | – | – | – | – | – | – | – | – | – | – | – | – | – | – | – | – | – | – | – | – | herbicidal rating CASOB ([1]; rate 0.0156 kg/ha): 2.0; herbicidal rating CASOB ([1]; rate 0.0313 kg/ha): 4.0; herbicidal rating CASOB ([1]; rate 0.0625 kg/ha): 5.0; herbicidal rating CHEAL ([2]; rate 0.0156 kg/ha): 7.0; herbicidal rating CHEAL ([2]; rate 0.0313 kg/ha): 9.0; herbicidal rating CHEAL ([2]; rate 0.0625 kg/ha): 9.0; herbicidal rating TRZAWR ([3]; rate 0.0156 kg/ha): 3.5; herbicidal rating TRZAWR ([3]; rate 0.0313 kg/ha): 3.5; herbicidal rating TRZAWR ([3]; rate 0.0625 kg/ha): 4.0; Preemergence herbicidal rating CHEAL [4, 11]: 9.0; Preemergence herbicidal rating CHEAL [4, 12]: 9.0; Preemergence herbicidal rating CHEAL [4, 13]: 9.0; Preemergence herbicidal rating CHEAL [4, 14]: 9.0; Preemergence herbicidal rating CHEAL [4, 15]: 9.0; Preemergence herbicidal rating ORYSAT [5, 11]: 0.0; Preemergence herbicidal rating ORYSAT [5, 12]: 0.0; Preemergence herbicidal rating ORYSAT [5, 13]: 1.0; Preemergence herbicidal rating ORYSAT [5, 14]: 3.0; Preemergence herbicidal rating ORYSAT [5, 15]: 6.0
